Data published in patent US12527755B2, “Formulations containing acetaminophen and sulfoalkyl ether cyclodextrin” (CyDex Pharmaceuticals, Inc., priority 2016, dated 2026).
Values after ≈ are worked out from the molar mass of the structure shown.

Experiment: physchem
Settings: for solubility: pH 7, aqueous buffer, thermodynamic from solid
Method: The acetaminophen solubility was measured at 25° C. and 5° C.

- solubility (5 °C): ~8.86 mg/mL (≈ 58.6 mM)
- solubility (25 °C): ~16 mg/mL (≈ 106 mM)
- CAPTISOL® concentration with which a 10 mg/ml acetaminophen solution can be made (pH 7): less than 0.05 M
Structure (SMILES): CC(=O)Nc1ccc(O)cc1 [acetaminophen, N-acetyl-p-aminophenol]
